Here are results for three compounds from article PMC7414093 (Proceedings of the National Academy of Sciences of the …, 2020).

The half-life is the time in which the quantity being followed falls by half. What is called microsomal CLint is a measure of how fast metabolising enzymes remove a compound, apart from limits set by blood flow. As usually defined, the EC50 is the concentration giving half of the maximal effect. The term solubility denotes the concentration that dissolves in the medium under given conditions. A higher solubility goes with much dissolved substance.

Series [1] is described as follows: in vitro. As to conditions: dog, CC50, compound alone, 72 h.
The next series has as its system MDCK-SIAT1 cells. The conditions noted are these: for cytotoxic concentration (CC)50: dog.
A short description of series [2]: in vitro. As to conditions: human, pH 7.4.
Series [3] has as its system H5N1 pseudovirus expressing H5 A/Vietnam/1203/2004. Put plainly: organism not typed. The class given is cell-based, influenza A virus. As to conditions: 72 h, read-out: EC50, virus neutralization.
Series [4] has as its system H1N1 virus expressing A/Beijing/262/1995 (H1/Beijing). Nature of the series: microbe, parasite or virus in culture. As to conditions: Influenza A virus, H1N1, 72 h, read-out: EC50, virus neutralization. In kind it is cell-based.
Series [5] relates to H1N1 virus expressing A/Solomon Islands/3/2006 (H1/SI06). Put plainly: microbe, parasite or virus in culture. In kind it is cell-based, influenza A virus.
For series [6], the target named is H5 A/Vietnam/1203/2004 HA (Influenza A virus, UniProt Q5EP31). Put plainly: biochemical. The class given is binding.
The nature of a further series: Solubility in PBS. The conditions noted are these: aqueous buffer. The class given is physicochemical.
A further series concerns human cells. More on the design: method as in PMID 30846569. The conditions noted are these: cited from earlier work.

Where “and” joins values, the source holds several entries; their conditions need not be identical. Identical values can stand only once.

Compound `O=C(c1ccc(Cl)cc1Cl)N1CCO[C@H](c2ccccc2)C1` [F0045(R)] showed a CC50 in “in vitro [1]” of 138 µM. Also, the “cytotoxic concentration (CC)50” value in the series on MDCK-SIAT1 cells was over 130 µM.
With `O=C(c1ccc(Cl)cc1Cl)N1CCO[C@@H](c2ccccc2)C1` [F0045(S)], the CC50 is 102 µM in the series “in vitro [1]”; 157 µM and 84 µM and 98 µM in the series on MDCK-SIAT1 cells (read-out: CC50, compound alone, 72 h). Moreover, the “cytotoxic concentration (CC)50” value in the series on MDCK-SIAT1 cells is over 130 µM. In the series “in vitro [2]” (0.42 mg), this compound had a k el of 0.000283 s⁻¹. Besides, the half-life in the series “in vitro [2]” (microsomes) came to 40.8 min. In the series “in vitro [2]” (microsomes), this compound had a microsomal CLint of 41 µL/min/mg. Moreover, the EC50 in series [3] was 22.8 ± 2.3 µM; in series [4], 1.6 ± 0.1 µM; in series [5] (Influenza A virus, H1N1, 72 h, read-out: EC50, virus neutralization) it was over 150 µM; in series [6] it was 16.2 ± 3.4 µM. For the same compound, the “protection from infection (in words)” value in [5] was “did not protect cells from infection”. Besides, the solubility in “Solubility in PBS” is over 500 µM.
Turning to `CC(=O)Nc1ccc2oc(-c3ccnc(C(=O)N4CCN([C@H](c5ccccc5)c5nnn(C)n5)CC4)c3)nc2c1` [JNJ4796], the CC50 in the series on human cells was over 10 µM.
